What was measured:
Type in all cases: cell-based
[1] = test system: MMP-9 protein secretion by monocytes (THP-1 cells) and macrophages; test: MMP-9 secreted protein in culture supernatants by sandwich ELISA; details: for cross-talk effect of IL-6 and TNF-α stimulation on the secretion of MMP-9 by monocytes: then IL-6/TNF-α for 24 hr; for crosstalk effect of IL-6 on TNF-α's enhancement of MMP-9 expression and secretion: summary statement, concentration not given; for MMP-9 protein secretion levels: monocytes and macrophages, stimulated 24 hr, FIGS. 2A-2B
Experimental: Monocytes (THP-1 cells and macrophages were cultured in 12-well plates (Costar, Corning Incorporated, Corning, N.Y., USA) at a cell density of 1/10^6 cells/well. Cells were pre-incubated with gp130 inhibitor (SC-144, 1.5 μM) or JAK2 inhibitor (AG-490, 30 μM) for 1 hour and then stimulated with IL-6 or TNF-α or IL-6/TNF-α for 24 hr at 37° C. (with humidity) in 5% CO2. Control cells were incubated with culture media only. Culture media and cells were harvested and MMP9 mRNA and protein expression levels were assessed by real-time PCR (RT-PCR) and ELISA. MMP-9 secreted protein in the supernatants of monocytes and macrophages stimulated with IL-6, TNF-α, or IL-6 and TNF-α was quantified using sandwich ELISA following the manufacturers instructions (SMP900, R&D systems, Minneapolis, USA). As illustrated in FIGS. 2A-2B. […] As illustrated in FIGS. 3A-3B, this robust cross-talk effect of IL-6 and TNF-α stimulation on the secretion of MMP-9 by monocytes may be extinguished by administration of either a JAK2 inhibitor AG-490, See FIG. 3A) or a gp130 inhibitor (SC-144, See FIG. 3B).

[2] = test system: MMP-9 mRNA expression in monocytes (THP-1 cells) and macrophages; test: MMP-9 mRNA expression by real-time PCR (RT-PCR); details: stimulated 24 hr, FIGS. 1A and 1B
Experimental: Monocytes (THP-1 cells and macrophages were cultured in 12-well plates (Costar, Corning Incorporated, Corning, N.Y., USA) at a cell density of 1/10^6 cells/well. Cells were pre-incubated with gp130 inhibitor (SC-144, 1.5 μM) or JAK2 inhibitor (AG-490, 30 μM) for 1 hour and then stimulated with IL-6 or TNF-α or IL-6/TNF-α for 24 hr at 37° C. (with humidity) in 5% CO2. Control cells were incubated with culture media only. Culture media and cells were harvested and MMP9 mRNA and protein expression levels were assessed by real-time PCR (RT-PCR) and ELISA.
Total RNA was extracted using RNeasy Mini Kit (Qiagen, Valencia, Calif.; USA). […] For RT-PCR, cDNA template (50 ng) was amplified using inventoried TaqMan Gene Expression Assay products (MMP-9; Hs00234579_m1; GAPDH; Bs0392909_g1; containing two gene-specific printers and one TaqMan MGB probe (6-FAM dye-labeled) with a TaqMan Gene Expression Master Mix (Applied Biosystems, Foster City, Calif., USA) and a 7500 Fast Real-Time PCR System (Applied Biosystems, Foster City, Calif., USA). The mRNA levels were normalized against GAPDH mRNA and MMP-9 mRNA expression relative to control was calculated using the 2^−ΔΔCt-method. Relative mRNA expression is shown as told expression over average of control gene expression. […] The results were analyzed statistically and P<0.05 was considered significant.

[3] = test system: MMP-9 proteolytic activity in conditioned media of THP-1 cells; test: MMP9 proteolytic activity measured using gelatin zymography; details: monocytes (THP-1), 24 hours incubation
Experimental: THP-1 cells were incubated with TNF-α and IL-6. After incubation for 24 hours, conditioned media were collected and mixed with Zymogram sample buffer (BioRad; 62.5 mM Tris-HCl, pH.6.8, 25% glycerol, 4% SDS and 0.01% bromophenol blue) and then loaded on to a 10% polyacrylamide gel with gelatin (10% Ready Gel Zymogram Gel, BioRad) for electrophoresis. The gel was incubated with renaturing buffer BioRad (2.5% Triton X-100) for 1 hour at room temperature and Incubated with zonogram developing buffer.

Compound	cross-talk effect of IL-6 and TNF-α stimulation on the secretion of MMP-9 by monocytes ([1]; SC-144 1.5 μM pre-incubated 1 hour, FIG. 3B)	crosstalk effect of IL-6 on TNF-α's enhancement of MMP-9 expression and secretion [1]	cross-talk effect of IL-6 and TNF-α stimulation on the secretion of MMP-9 by monocytes ([1]; AG-490 30 μM pre-incubated 1 hour, FIG. 3A)	MMP-9 protein secretion levels [1]	MMP-9 mRNA expression relative to control [2]	MMP-9 proteolytic activity [3]
O=C(NNc1nc2cc(F)ccc2n2cccc12)c1cnccn1 [SC-144]	extinguished	suppress	–	–	–	–
N#C/C(=C\c1ccc(O)c(O)c1)C(=O)NCc1ccccc1 [AG490]	–	suppress	extinguished	–	–	–
tumor necrosis factor alpha [TNF-α]	–	–	–	increased	increase	lesser
interleukin-6 [IL-6]	–	–	–	minimally effected	–	minimal
